Reference: ChEMBL document CHEMBL1201862, “PubChem BioAssay data set” (2004)
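Briefly, cells in 96-well plates were exposed to five compound concentrations for 48 h, and endpoints were estimated by linear interpolation. Here, GI50 denotes the concentration required for 50% inhibition of growth.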 The source made the active and inactive calls. No stated cut-off is given here; in the data, active = GI50 up to about 1.1 µM and inactive = higher.

Tests used:
Test in all cases: NCI tumour cell line growth inhibition, 48 h
786-0 = tested on: 786-0
ACHN = tested on: ACHN
BT-549 = tested on: BT-549
EKVX = tested on: EKVX
KM12 = tested on: KM12
M14 = tested on: M14
MCF7 = tested on: MCF7
MDA-MB-435 = tested on: MDA-MB-435
MOLT-4 = tested on: MOLT-4
NCI-H23 = tested on: NCI-H23
OVCAR-5 = tested on: OVCAR-5
PC-3 = tested on: PC-3
RXF 393 = tested on: RXF 393
SF-539 = tested on: SF-539
SNB-19 = tested on: SNB-19
SNB-75 = tested on: SNB-75
SW-620 = tested on: SW-620
T47D = tested on: T47D
UACC-257 = tested on: UACC-257
UACC-62 = tested on: UACC-62

| Structure (SMILES) | GI50 (786-0) | GI50 (ACHN) | GI50 (BT-549) | GI50 (EKVX) | GI50 (KM12) | GI50 (M14) | GI50 (MCF7) | GI50 (MDA-MB-435) | GI50 (MOLT-4) | GI50 (NCI-H23) | GI50 (OVCAR-5) | GI50 (PC-3) | GI50 (RXF 393) | GI50 (SF-539) | GI50 (SNB-19) | GI50 (SNB-75) | GI50 (SW-620) | GI50 (T47D) | GI50 (UACC-257) | GI50 (UACC-62) |
| --- | --- | --- | --- | --- | --- | --- | --- | --- | --- | --- | --- | --- | --- | --- | --- | --- | --- | --- | --- | --- |
| CCOC(=O)Nc1nc(-c2ccccc2)c(C)s1 | > 100 µM (inactive) | > 100 µM (inactive) | 53.8 µM (inactive) | 23.7 µM (inactive) | > 100 µM (inactive) | > 100 µM (inactive) | 56.4 µM (inactive) | > 100 µM (inactive) | 7.35 µM (inactive) | 81.1 µM (inactive) | > 100 µM (inactive) | > 100 µM (inactive) | > 100 µM (inactive) | > 100 µM (inactive) | > 100 µM (inactive) | 31.8 µM (inactive) | > 100 µM (inactive) | 47.3 µM (inactive) | > 100 µM (inactive) | > 100 µM (inactive) |
| C/C(=N\Nc1nc2ccccc2s1)c1cc(C)ncn1 | 0.507 µM (active) | 0.199 µM (active) | 6.79 µM (inactive) | 0.269 µM (active) | 0.767 µM (active) | 0.474 µM (active) | 0.341 µM (active) | 2.81 µM (inactive) | 0.104 µM (active) | 0.741 µM (active) | 1.27 µM (inactive) | 0.612 µM (active) | 3.02 µM (inactive) | 1.38 µM (inactive) | 6.68 µM (inactive) | 1.34 µM (inactive) | 0.352 µM (active) | 0.206 µM (active) | 0.29 µM (active) | 0.979 µM (active) |
| N=C1/C(=C/c2ccco2)C(=O)N=C2SC=NN12 | > 100 µM (inactive) | > 100 µM (inactive) | > 100 µM (inactive) | > 100 µM (inactive) | > 100 µM (inactive) | > 100 µM (inactive) | > 100 µM (inactive) | > 100 µM (inactive) | > 100 µM (inactive) | > 100 µM (inactive) | > 100 µM (inactive) | > 100 µM (inactive) | > 100 µM (inactive) | > 100 µM (inactive) | > 100 µM (inactive) | 99.1 µM (inactive) | > 100 µM (inactive) | > 100 µM (inactive) | > 100 µM (inactive) | > 100 µM (inactive) |
| C/C=C/[C@H](O[Si](C)(C)C(C)(C)C)[C@@H](O)/C=C/C(=O)OCC | 20.8 µM (inactive) | 16.6 µM (inactive) | 31.8 µM (inactive) | 20.7 µM (inactive) | 18 µM (inactive) | – | 21.1 µM (inactive) | 19.5 µM (inactive) | 18.6 µM (inactive) | 38.7 µM (inactive) | 31.1 µM (inactive) | 33.3 µM (inactive) | 21.8 µM (inactive) | 23.9 µM (inactive) | 14.3 µM (inactive) | 37.5 µM (inactive) | 19.3 µM (inactive) | 30.4 µM (inactive) | 19 µM (inactive) | 18.8 µM (inactive) |
| COc1ccc2nc(-c3ccccc3)c(=O)[nH]c2c1 | > 100 µM (inactive) | > 100 µM (inactive) | > 100 µM (inactive) | > 100 µM (inactive) | – | > 100 µM (inactive) | > 100 µM (inactive) | > 100 µM (inactive) | > 100 µM (inactive) | > 100 µM (inactive) | > 100 µM (inactive) | > 100 µM (inactive) | > 100 µM (inactive) | > 100 µM (inactive) | > 100 µM (inactive) | > 100 µM (inactive) | > 100 µM (inactive) | > 100 µM (inactive) | > 100 µM (inactive) | > 100 µM (inactive) |
| C1CN(c2nnc(N3CCC3)nn2)C1 | 34.8 µM (inactive) | > 69.8 µM (inactive) | > 65.9 µM (inactive) | > 85.3 µM (inactive) | > 89.5 µM (inactive) | 36.1 µM (inactive) | > 50.2 µM (inactive) | 18.4 µM (inactive) | > 100 µM (inactive) | 30.6 µM (inactive) | 41.2 µM (inactive) | > 46 µM (inactive) | > 63.5 µM (inactive) | 44.8 µM (inactive) | > 67.9 µM (inactive) | 21 µM (inactive) | 32.3 µM (inactive) | > 100 µM (inactive) | 22.9 µM (inactive) | 19.3 µM (inactive) |
| O=c1c(SSc2coc3cc(F)ccc3c2=O)coc2cc(F)ccc12 | 10 µM (inactive) | 6.92 µM (inactive) | > 100 µM (inactive) | 21.1 µM (inactive) | 8.95 µM (inactive) | – | 14.6 µM (inactive) | 11.1 µM (inactive) | 7.31 µM (inactive) | 25.1 µM (inactive) | 37.8 µM (inactive) | 7.82 µM (inactive) | 32.2 µM (inactive) | 28.7 µM (inactive) | 43.5 µM (inactive) | 11 µM (inactive) | 17.7 µM (inactive) | 20.7 µM (inactive) | 21.8 µM (inactive) | 16.1 µM (inactive) |
| CC(C)(/N=N/C(C)(C)C1=NCCN1)C1=NCCN1 | > 71.4 µM (inactive) | > 100 µM (inactive) | > 100 µM (inactive) | > 100 µM (inactive) | > 100 µM (inactive) | > 85.9 µM (inactive) | > 69.5 µM (inactive) | > 100 µM (inactive) | > 100 µM (inactive) | – | > 100 µM (inactive) | > 100 µM (inactive) | > 100 µM (inactive) | > 67.1 µM (inactive) | > 100 µM (inactive) | > 100 µM (inactive) | > 100 µM (inactive) | 76.6 µM (inactive) | > 100 µM (inactive) | > 100 µM (inactive) |
| Cc1cccc(Cn2c3c(c4cc(O)ccc42)C(=O)c2ccccc2C3=O)c1 | 3.86 µM (inactive) | 13.3 µM (inactive) | 24.3 µM (inactive) | 3.95 µM (inactive) | 41.2 µM (inactive) | > 100 µM (inactive) | 23.2 µM (inactive) | > 80.9 µM (inactive) | > 83.6 µM (inactive) | 15.4 µM (inactive) | – | 6.27 µM (inactive) | 5.6 µM (inactive) | 5.7 µM (inactive) | 28 µM (inactive) | 1.97 µM (inactive) | 31 µM (inactive) | > 100 µM (inactive) | > 100 µM (inactive) | 11.1 µM (inactive) |
| Cc1cc(Cl)ccc1C(=O)c1ccc2ccccc2c1C(=O)O | > 100 µM (inactive) | > 100 µM (inactive) | > 100 µM (inactive) | – | > 100 µM (inactive) | > 100 µM (inactive) | 41.5 µM (inactive) | > 100 µM (inactive) | > 100 µM (inactive) | > 100 µM (inactive) | > 100 µM (inactive) | > 100 µM (inactive) | 39.6 µM (inactive) | > 100 µM (inactive) | > 100 µM (inactive) | 85.3 µM (inactive) | > 100 µM (inactive) | > 100 µM (inactive) | > 100 µM (inactive) | > 100 µM (inactive) |
| CC(=O)OCC1OC(SC2=N/C(=C\c3cc4c(=O)c5ccccc5sc4s3)C(=O)N2c2ccccc2)C(OC(C)=O)C(OC(C)=O)C1OC(C)=O (centres undefined) | > 100 µM (inactive) | > 100 µM (inactive) | 63.8 µM (inactive) | 65 µM (inactive) | > 100 µM (inactive) | – | 78.7 µM (inactive) | > 100 µM (inactive) | 20.6 µM (inactive) | > 100 µM (inactive) | 62.4 µM (inactive) | > 100 µM (inactive) | 81.5 µM (inactive) | – | 40.4 µM (inactive) | 65.8 µM (inactive) | 67.8 µM (inactive) | > 100 µM (inactive) | > 100 µM (inactive) | > 100 µM (inactive) |
| Cc1ccnc(NS(=O)(=O)c2ccc(N=[N+]=[N-])cc2)n1 | > 100 µM (inactive) | > 100 µM (inactive) | > 100 µM (inactive) | > 100 µM (inactive) | > 100 µM (inactive) | > 100 µM (inactive) | > 100 µM (inactive) | > 100 µM (inactive) | – | > 100 µM (inactive) | > 100 µM (inactive) | > 100 µM (inactive) | > 100 µM (inactive) | > 100 µM (inactive) | > 100 µM (inactive) | > 100 µM (inactive) | > 100 µM (inactive) | > 100 µM (inactive) | > 100 µM (inactive) | > 100 µM (inactive) |
| Nc1nc(-c2ccccc2)c(CC(=O)O)s1 | > 100 µM (inactive) | > 100 µM (inactive) | > 100 µM (inactive) | > 100 µM (inactive) | > 100 µM (inactive) | > 100 µM (inactive) | > 100 µM (inactive) | > 100 µM (inactive) | > 100 µM (inactive) | – | > 100 µM (inactive) | > 100 µM (inactive) | > 100 µM (inactive) | > 100 µM (inactive) | > 100 µM (inactive) | > 100 µM (inactive) | > 100 µM (inactive) | > 100 µM (inactive) | > 100 µM (inactive) | > 100 µM (inactive) |
| COc1cc2c(cc1OC)C(=O)/C(=C/c1ccccc1)CC2 | 34.9 µM (inactive) | 53.5 µM (inactive) | 12.5 µM (inactive) | 56.1 µM (inactive) | 14.4 µM (inactive) | > 100 µM (inactive) | 27.3 µM (inactive) | 8.09 µM (inactive) | 18.1 µM (inactive) | > 100 µM (inactive) | 27.4 µM (inactive) | 42.5 µM (inactive) | > 100 µM (inactive) | 47.5 µM (inactive) | 27.7 µM (inactive) | 17 µM (inactive) | 40.4 µM (inactive) | 26.1 µM (inactive) | 61.2 µM (inactive) | – |
